Measured values from US20110262564A1, “Treatment of Cancer with Selenium Nanoparticles” (priority 2010, published 2011).

Experiments:
[1] = tested on: androgen-dependent LNCaP cells; test: CCK-8 cell viability assay, LNCaP; assay type: cell-based, human; settings: 0-100 μM, 24 and 48 hours
Method: (§1) To determine the cell viability effect of nano-Se in human prostate cancer cells, androgen-dependent LNCaP cells and androgen-independent DU145 cells were treated with 0, 1, 5, 10, 50 and 100 μM of Nano-Se particle suspensions for 24 and 48 hrs respectively.
(§2) LNCaP (Lot#1735217), and DU-145 (Lot#1145858) human prostate cancer cell lines were purchased from the American Type Culture Collection (ATCC, Manassas, Va., USA). Cells were maintained in 1640 culture medium (Invitrogen Life Technologies, USA) supplemented with 10% (v/v) fetal bovine serum and antibiotics.
For cell viability assay, cells were seeded into 96-well plates at a density of 1×10^4 cells/well, and 40-50% confluent cells were subsequently treated with nano-Se nanoparticles (1 to 100 μM) or distilled water for 24 or 48 hrs respectively. Treated cells were then collected and measured by Cell Counting Kit-8 (CCK-8) system (Dojindo Laboratory, Kumamoto, Japan). Briefly, CCK-8 solution (10 μl per 100 ul of medium in each well) was added, the plates were then incubated at 37° C. for 1 hour, and the absorbance of each well was read at 450 nm using a microplate reader. Values were shown as means±SE of quadruplicated determinations of a representative experiment (repeated three times). Differences between groups were analyzed using Student's test with significance assumed at p<0.05. […]

[2] = tested on: androgen-independent DU145 cells; test: CCK-8 cell viability assay, DU145; assay type: cell-based, human
Method: as §1, §2
(§3) For cell viability assay, cells were seeded into 96-well plates at a density of 1×10^4 cells/well, and 40-50% confluent cells were subsequently treated with nano-Se nanoparticles (1 to 100 μM) or distilled water for 24 or 48 hrs respectively. Treated cells were then collected and measured by Cell Counting Kit-8 (CCK-8) system (Dojindo Laboratory, Kumamoto, Japan). Briefly, CCK-8 solution (10 μl per 100 ul of medium in each well) was added, the plates were then incubated at 37° C. for 1 hour, and the absorbance of each well was read at 450 nm using a microplate reader. Values were shown as means±SE of quadruplicated determinations of a representative experiment (repeated three times). Differences between groups were analyzed using Student's test with significance assumed at p<0.05. All statistical analyses were performed using Origin75 software.
Cells were treated with 0-100 μM nano-Se nanoparticles or MSA for 24 and 48 hours. Cells were then collected and cell viabilities were assayed. The data shown are mean±standard of three samples for each treatment. Differences between groups were analyzed using Student's test with significance assumed at p<0.05.

[3] = tested on: human breast cancer cell line MCF-7 cells; test: Cell viability assay, MCF-7; assay type: cell-based
Method: as §3
(§4) In reference to FIGS. 3A and 3B, 4A and 4B, 5A and 5B, 6A and 6B, the effects of nano-Se nanoparticles on cell viability are compared to that of MSA in androgen dependent prostate cancer line LNCaP cells, androgen independent prostate cancer line DU145 cells, human breast cancer cell line MCF-7 cells, human lung carcinoma cell line A549 cells.
(§5) Cells were treated with 0-100 μM nano-Se nanoparticles or MSA for 24 and 48 hours. […] Differences between groups were analyzed using Student's test with significance assumed at p<0.05.

[4] = tested on: human lung carcinoma cell line A549 cells; test: Cell viability assay, A549; assay type: cell-based
Method: as §3, §4, §5

androgen receptor [5] = biological target: T1, androgen receptor (Homo sapiens, UniProt P10275); test: MMTV-luc androgen receptor luciferase reporter assay in HEK293; assay type: cell-based; settings: MMTV promoter construct, HEK293, 10 nM
T1 construct: the full length human wild type androgen receptor cDNA expression plasmid pAR0; expressed in transfected cells; host or cells: HEK293
T1 sequence (P10275 1-920): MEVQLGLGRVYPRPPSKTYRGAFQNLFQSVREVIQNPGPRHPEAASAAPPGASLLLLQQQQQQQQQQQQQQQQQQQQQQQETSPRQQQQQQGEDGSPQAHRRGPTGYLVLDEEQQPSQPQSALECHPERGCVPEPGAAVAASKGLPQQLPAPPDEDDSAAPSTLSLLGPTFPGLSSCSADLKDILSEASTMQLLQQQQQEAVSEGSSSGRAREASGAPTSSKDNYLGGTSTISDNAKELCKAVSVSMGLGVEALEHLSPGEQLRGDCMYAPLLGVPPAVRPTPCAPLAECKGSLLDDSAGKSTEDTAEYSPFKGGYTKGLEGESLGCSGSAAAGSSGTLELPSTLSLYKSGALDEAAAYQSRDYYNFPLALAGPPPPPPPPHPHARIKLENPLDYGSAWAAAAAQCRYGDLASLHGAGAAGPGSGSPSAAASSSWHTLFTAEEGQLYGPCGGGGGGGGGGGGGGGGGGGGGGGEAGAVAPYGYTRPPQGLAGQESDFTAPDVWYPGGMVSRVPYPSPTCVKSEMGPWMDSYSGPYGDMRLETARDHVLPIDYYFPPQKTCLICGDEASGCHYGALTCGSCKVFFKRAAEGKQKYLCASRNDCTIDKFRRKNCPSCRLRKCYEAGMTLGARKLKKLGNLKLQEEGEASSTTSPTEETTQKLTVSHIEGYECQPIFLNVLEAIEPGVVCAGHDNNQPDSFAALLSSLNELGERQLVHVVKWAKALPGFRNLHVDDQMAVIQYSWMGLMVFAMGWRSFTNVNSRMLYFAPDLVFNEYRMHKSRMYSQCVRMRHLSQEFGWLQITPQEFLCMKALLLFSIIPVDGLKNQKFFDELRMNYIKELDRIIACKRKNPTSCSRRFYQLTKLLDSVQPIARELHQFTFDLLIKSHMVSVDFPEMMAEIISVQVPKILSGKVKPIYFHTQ
Method: (§6) Both MMTV-luc and pGL3-PSA-luc plasmids contain Androgen Receptor binding site which recruits androgen receptor and its co-activator to recruit RNA Pol II to the promoter region.
(§7) Cells were then lysed and assayed for luciferase activity using Dual-Luciferase® Reporter Assay System (Promega, Madison, Wis., USA), the experiment was performed in triplicate and repeated at least four times.

androgen receptor [6] = biological target: T1, androgen receptor; test: pGL3-PSA-luc androgen receptor luciferase reporter assay in HEK293; assay type: cell-based; settings: PSA promoter construct, HEK293, 10 nM
Method: as §6, §7

| Structure (SMILES) | effect on cell viability [1] | effect on cell viability ([2]; DU145, 0-100 μM, 24 and 48 hours, dose and time-dependent) | effect on cell viability, MSA versus nano-Se ([2]; DU145, 24 hour treatment, all measured concentrations) | effect on cell viability, nano-Se versus MSA ([2]; DU145, 48 hour treatment) | effect on cell viability ([3]; MCF-7, 0-100 μM, 24 and 48 hours, dose and time-dependent) | potency in decreasing cell viability, MSA versus nano-Se ([3]; MCF-7, 24 and 48 hours) | effect on cell viability ([4]; A549, 0-100 μM, 24 and 48 hours, dose and time-dependent) | potency in decreasing cell viability, MSA versus nano-Se ([4]; A549, 24 and 48 hours) | androgen receptor dependent promoter activity (luciferase) (androgen receptor [5]) | androgen receptor dependent promoter activity (luciferase) (androgen receptor [6]) |
| --- | --- | --- | --- | --- | --- | --- | --- | --- | --- | --- |
| C[Se](=O)O [MSA, Methylseleninic acid] | decreased cell viability | decreased cell viability | more significant | comparable | decreased cell viability | more potent in decreasing cell viability | decreased cell viability | more potent in decreasing cell viability |  |  |
| C[C@]1(O)CC[C@H]2[C@@H]3CCC4=CC(=O)CCC4=C3C=C[C@@]21C [R1881] |  |  |  |  |  |  |  |  | induced androgen receptor dependent promoter activity | induced androgen receptor dependent promoter activity |
